We go through two compounds from patent publication US20230270754A1, “COMBINATION THERAPY FOR INHALATION ADMINISTRATION” (Chemo Research, S.L., priority 2020, published 2023).

Assay type in all cases: physicochemical
The nature of series [1]: Active ingredient content after filtration (assay by Reverse Phase HPLC), Example 1. The conditions noted are these: triple combination BDP/GB/FF; for Formulation 1 Assay (%) active ingredient content compared to the theoretical amount: Formulation 1: 70% Ethanol; for Formulation 2 Assay (%) active ingredient content compared to the theoretical amount: Formulation 2: 96% Ethanol. Here is the method: Both formulations were filtrated, and individual assay of all active ingredients were tested by Reverse Phase HPLC.
Three independent Reverse Phase HPLC analytical methods were used for the determination of each active ingredient in all the analyses.

A short description of series [2]: Delivered dose by dose unit sampling apparatus (DUSA), Example 2. The source says: Active pharmaceutical ingredients (APIs) deposited in the sampling apparatus were quantitatively recovered with a DUSA shaker (Copley Scientific Ltd) and methanol. APIs were, then, quantified by HPLC with the same methods described in Example 1.
Results are expressed as the average of 5 measurements.

Series [3] in a line: APSD by NGI, Example 2 Trimbow pMDI vs soft mist inhaler. Here is the method: The in vitro aerodynamic assessment was carried using a next generation impactor, NGI (Copley Scientific Ltd), equipped with a mouthpiece adapter for the insertion of the inhaler, an induction port and an internal filter holder (IFH) to capture the smaller particles. The product was tested as per procedure detailed in the European pharmacopoeia chapter 2.9.18 (apparatus E) and US Pharmacopeia chapter <601> (apparatus 6) for Soft Mist Inhalers.
The NGI was cooled to 5° C. for at least 75 min. The cooling chamber was then opened and, after 30 minutes, the NGI was connected to a HCP5 vacuum pump (Copley Scientific Ltd). […]
After the required actuations, the particles deposited on the different surfaces of the impactor were extracted using a suitable diluent (methanol) and with the help of a Gentle Rocker (Copley Scientific Ltd).
(§1) Data analysis. The NGI results were plotted against the stage cut-off diameter as the mass recovered from the induction port to the filter. Fine particle fraction (FPF %), mass median aerodynamic diameter (MMAD), fine particle dose (FPD) were determined from the analysis of the NGI data.
(§2) Results are expressed as the mean value of two NGIs analysis.

Series [4] is described as follows: APSD by NGI, Example 3 Foster pMDI vs soft mist inhaler. The procedure: The in vitro aerodynamic assessment was carried using a next generation impactor, NGI (Copley Scientific Ltd), equipped with a mouthpiece adapter for the insertion of the inhaler, an induction port and an internal filter holder (IFH) to capture the smaller particles. The product was tested as per procedure detailed in the European and US Pharmacopeia for Soft Mist Inhalers and pMDIs.
The NGI was cooled to 5° C. for at least 75 min. The cooling chamber was then opened and, after 30 minutes, the NGI was connected to a HCP5 vacuum pump (Copley Scientific Ltd). For each experiment, ten doses were discharged into the NGI at 30 L/min for 5 seconds each.
After the required actuations, the particles deposited on the different surfaces of the impactor were extracted using a suitable diluent (methanol) and with the help of a Gentle Rocker (Copley Scientific Ltd). Active ingredients were then quantified by HPLC, with the same methods used for the Example 1.
Data analysis. The NGI was plotted against the stage cut-off diameter as the mass recovered from the induction port to the filter. Fine particle fraction (FPF %) and mass median aerodynamic diameter (MMAD) were determined from the analysis of the NGI data.
as §2

Series [5] can be described thus: APSD by NGI, Example 4 budesonide/formoterol 70% vs 96% ethanol, soft mist inhaler. The procedure:
Typical System Suitability Criteria applies as per USP <621> requirements.
For the APSD evaluation Formulation 1 and 2 were filled into cartridges compatible with a soft mist inhaler (Respimat®). The in vitro aerodynamic particle size distribution of both formulations was evaluated using an impactor, the next generation impactor, NGI (Copley Scientific Ltd) equipped with a mouthpiece adapter for the insertion of the inhaler, an induction port and an internal filter holder (IFH) to capture the smaller particles. The product was tested as per procedure detailed in the European pharmacopoeia chapter 2.9.18 (apparatus E) and US Pharmacopeia chapter <601> (apparatus 6) for Soft Mist Inhalers.
(§3) The NGI was cooled to 5° C. for at least 75 min. The cooling chamber was then opened and, after 30 minutes, the NGI was connected to a HCP5 vacuum pump (Copley Scientific Ltd). For each experiment, ten doses were discharged per NGI actuated at 28.3 L/min for 5 seconds each.
After the required actuations, the particles deposited on the different surfaces of the impactor were extracted using a suitable diluent (75/25 v/v MeOH/water) and with the help of a Gentle Rocker (Copley Scientific Ltd). Active ingredients were then quantified by HPLC as described above.
as §1, §2

Series [6] is described as follows: APSD by NGI, Example 5 Symbicort pMDI vs soft mist inhaler. Here is the method: The in vitro aerodynamic particle size distribution of both formulations was evaluated using an impactor, the next generation impactor, NGI (Copley Scientific Ltd) equipped with a mouthpiece adapter for the insertion of the inhaler, an induction port and an internal filter holder (IFH) to capture the smaller particles. The product was tested as per procedure detailed in the European and US Pharmacopoeia for Soft Mist Inhalers and pMDIs.
as §3
After the required actuations, the particles deposited on the different surfaces of the impactor were extracted using a suitable diluent (75/25 v/v MeOH/water) and with the help of a Gentle Rocker (Copley Scientific Ltd). Active ingredients were then quantified by HPLC, with the same methods described in example 4.
Data analysis. The NGI was plotted against the stage cut-off diameter as the mass recovered from the induction port to the filter. Fine particle fraction (FPF %), and mass median aerodynamic diameter (MMAD) were determined from the analysis of the NGI data.
as §2

[7] abbreviates: Soft Mist Inhaler (Respimat) 1 actuation, triple combination in 96% ethanol.
[8] abbreviates: Soft Mist Inhaler (1 actuation), triple combination in 96% ethanol.
Where [9] appears, read: Soft Mist Inhaler (1 actuation), double combination BDP/FF in 96% ethanol.
[10] abbreviates: Trimbow pMDI (2 actuations), table title: Foster pMDI (2 actuation).
Setting [11] is: Soft Mist Inhaler (1 actuation), budesonide/formoterol in 96% ethanol.

On to `COc1ccc(C[C@@H](C)NC[C@H](O)c2ccc(O)c(NC=O)c2)cc1.O.O.O=C(O)/C=C/C(=O)O` (racemic) [Formoterol Fumarate], for which the “Formulation 1 Assay (%) active ingredient content compared to the theoretical amount” value in series [1] turned out to be 93.8%. Also, the “Formulation 2 Assay (%) active ingredient content compared to the theoretical amount” value in series [1] is listed as 100.3%. Besides, the “DUSA (μg) delivered dose” value in series [2] (setting [7]) was determined as 6.1 µg; in series [2] (Trimbow pMDI 1 actuation), 5.7 µg. Moreover, the FPD in series [3] (setting [8]) stood at 5.3 µg; in series [3] (Trimbow pMDI (2 actuations)) it was 5.2 µg; in series [5] (Formulation 1 (70% EtOH)), 3.3 µg. Moreover, the FPF was 87.8% in series [3] (setting [8]), 44.6% in series [3] (Trimbow pMDI (2 actuations)), 68.4% in series [5] (Formulation 1 (70% EtOH)) and 89.7% in series [5] (Formulation 2 (96% EtOH)). The “IP (induction port deposition)” value in series [3] (setting [8]) was found to be 8.3%; in series [3] (Trimbow pMDI (2 actuations)) it was 53.4%. Moreover, the “FPF (%)” value in series [4] (setting [9]) was 90.4%; in series [4] (setting [10]), 45.8%; in series [6] (setting [11]), 89.7%; in series [6] (Symbicort pMDI (1 actuation)) it was 58.7%. In addition, the “MMAD (μm)” value in series [4] (setting [9]) is recorded as 1.2 μm; in series [4] (setting [10]) it was 1.2 μm; in series [6] (setting [11]), 1.1 μm; in series [6] (Symbicort pMDI (1 actuation)), 3.3 μm. The MMAD in series [5] (Formulation 1 (70% EtOH)) amounted to 2.7 μm.
As for `CCC(=O)OCC(=O)[C@@]1(OC(=O)CC)[C@@H](C)C[C@H]2[C@@H]3CCC4=CC(=O)C=C[C@]4(C)[C@@]3(Cl)[C@@H](O)C[C@@]21C` [Beclometasone Dipropionate, 9-chloro-11β,17,21-trihydroxy-16β-methylpregna-1,4-diene-3, 20-dione 17,21-dipropionate], in series [1], the “Formulation 1 Assay (%) active ingredient content compared to the theoretical amount” value was determined as 40.1% and the “Formulation 2 Assay (%) active ingredient content compared to the theoretical amount” value is reported as 99.7%. In addition, the “DUSA (μg) delivered dose” value in series [2] (setting [7]) was determined as 97.1 µg. For the same compound, in series [2] (Trimbow pMDI 1 actuation), the “DUSA (μg) delivered dose” value is 98.4 µg. Besides, in series [3] (setting [8]), the FPD was found to be 91.7 µg, the FPF is listed as 87.9%, the “IP (induction port deposition)” value is on record as 8.3% and the MMAD amounted to 1.2 μm. Further, in series [3] (Trimbow pMDI (2 actuations)), the FPD came to 86.0 µg, the FPF stood at 42.9%, the “IP (induction port deposition)” value amounted to 52.9% and the MMAD is reported as 1.2 μm. Moreover, in series [4] (setting [9]), the “FPF (%)” value was determined as 91.3% and the “MMAD (μm)” value is reported as 1.1 μm. In addition, in series [4] (setting [10]), the “FPF (%)” value is listed as 49.4% and the “MMAD (μm)” value is 1.2 μm.
